# Data published in patent US20090221567A1, “MUSCARINIC RECEPTOR AGONISTS, COMPOSITIONS, METHODS OF TREATMENT THEREOF, AND PROCESSES FOR PREPARATION THEREOF 177” (ASTRAZENECA AB, priority 2008, published 2009).
# Target: T1, hM3 (human Muscarinic receptor subtype 3) (Homo sapiens, UniProt P20309)
# T1 construct: expressed in transfected cells; host or cells: CHO cells (Chinese hamster ovary cells, ATCC)
# Assay: Human M3 calcium mobilization FLIPR assay
# Format: cell-based
# Conditions: receptor expressed in CHO cells, intracellular Ca2+ release
# Experimental: (§1) The compound activity in the present invention (EC50 or IC50) is measured using a 384 plate-based imaging assay that monitors drug induced intracellular Ca^2+ release in whole cells. Activation of hM1 (human Muscarinic receptor subtype 1, gene bank access NM_000738), rM1 (rat Muscarinic receptor subtype 1, gene bank access NM_080773), hM3 (human Muscarinic receptor subtype 3, gene bank access NM_000740NM_000740) and hM5 (human Muscarinic receptor subtype 5, gene bank access NM_0121258), receptors expressed in CHO cells (Chinese hamster ovary cells, ATCC) is quantified in a Molecular Devices FLIPR IITM instrument as an increase in fluorescent signal. Inhibition of hM3 and hM5 by compounds is determined by the decrease in fluorescent signal in response to 2 nM acetylcholine activation.
# (§2) Prior to experiment, the cell culture medium is removed from the plates by inversion. […] Plates are incubated at 37° C. for 60 minutes prior to start the experiment. The incubation is terminated by washing the cells four times in assay buffer, leaving a residual 25 μl buffer per well. Cell plates are then transferred to the FLIPR, ready for compound additions.
# (§3) The day of experiment, acetylcholine and compounds are diluted in assay buffer in three-fold concentration range (10 points serial dilution) for addition by FLIPR instrument. For all calcium assays, a baseline reading is taken for 10 seconds followed by the addition of 12.5 μl of compounds, resulting in a total well volume of 37.5 μl. Data is collected every second for 60 pictures and then every 6 seconds for 20 pictures prior to the addition of agonist. For hM3 and hM5, before agonist addition, a second baseline reading is taken for 10 seconds followed by the addition of 12.5 μl of agonist or buffer, producing a final volume of 50 μl. After agonist stimulation, the FLIPR continues to collect data every second for 60 pictures and then every 6 seconds for 20 pictures. The fluorescence emission is read using filter 1 (emission 510-570 nm) by the FLIPR on board CCD camera.
# (§4) Calcium mobilization output data are calculated as the maximal relative fluorescence unit (RFU) minus the minimal value for both compound and agonist reading frame (except for hM1 and rM1 using only the maximal RFU). Data are analyzed using sigmoidal fits of a non-linear curve-fitting program (XLfit version 4.2.2 Excel add-in version 4.2.2 build 18 math 1Q version 2.1.2 build 18). All pEC50 and pIC50 values are reported as arithmetic means±standard error of mean of ‘n’ independent experiments.
# T1 sequence (P20309 whole entry): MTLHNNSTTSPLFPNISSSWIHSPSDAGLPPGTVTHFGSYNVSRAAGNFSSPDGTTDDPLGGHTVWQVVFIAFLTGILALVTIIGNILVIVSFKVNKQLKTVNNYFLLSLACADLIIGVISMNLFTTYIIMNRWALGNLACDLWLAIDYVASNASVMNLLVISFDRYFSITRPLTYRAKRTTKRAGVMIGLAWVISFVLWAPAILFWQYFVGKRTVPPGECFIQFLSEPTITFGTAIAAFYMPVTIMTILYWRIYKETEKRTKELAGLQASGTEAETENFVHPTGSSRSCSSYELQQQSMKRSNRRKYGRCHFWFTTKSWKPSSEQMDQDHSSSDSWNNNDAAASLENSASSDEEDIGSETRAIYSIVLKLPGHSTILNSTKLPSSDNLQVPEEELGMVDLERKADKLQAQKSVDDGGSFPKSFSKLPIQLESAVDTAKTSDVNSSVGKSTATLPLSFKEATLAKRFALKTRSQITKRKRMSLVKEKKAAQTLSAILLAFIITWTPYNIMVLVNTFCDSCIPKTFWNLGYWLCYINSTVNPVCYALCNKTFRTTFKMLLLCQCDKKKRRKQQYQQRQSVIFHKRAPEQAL
row,EC50 [µM],Structure (SMILES)
1,> 40,"COc1ccsc1C(=O)N1CCC(N2CCC(N3C(=O)OC[C@H]4CCCC[C@@H]43)CC2)CC1 (racemic) [Example 17, (±)(trans)-10-[1-[1-(3-methoxythiophene-2-carbonyl)-4-piperidyl]-4-piperidyl]-8-oxa-10-azabicyclo[4.4.0]decan-9-one]"

# Target: T2, hM1 (human Muscarinic receptor subtype 1) (Homo sapiens, UniProt P11229)
# T2 construct: expressed in transfected cells; host or cells: CHO cells (Chinese hamster ovary cells, ATCC)
# T2 sequence (P11229 1-460): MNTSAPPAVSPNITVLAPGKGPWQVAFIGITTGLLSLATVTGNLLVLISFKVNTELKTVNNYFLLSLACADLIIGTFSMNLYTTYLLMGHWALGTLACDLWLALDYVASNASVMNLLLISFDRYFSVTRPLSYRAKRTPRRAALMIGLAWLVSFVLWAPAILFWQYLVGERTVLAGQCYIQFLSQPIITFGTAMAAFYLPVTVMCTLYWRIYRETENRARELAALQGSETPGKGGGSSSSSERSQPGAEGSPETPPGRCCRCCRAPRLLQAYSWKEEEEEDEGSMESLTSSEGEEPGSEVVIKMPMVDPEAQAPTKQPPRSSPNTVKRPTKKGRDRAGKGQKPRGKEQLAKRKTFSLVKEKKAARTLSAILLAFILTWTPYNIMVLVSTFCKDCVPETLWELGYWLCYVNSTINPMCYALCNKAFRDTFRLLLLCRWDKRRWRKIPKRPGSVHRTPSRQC
# Assay: Human M1 calcium mobilization FLIPR assay
# Format: cell-based
# Conditions: read-out: hM1 EC50 values
# Experimental: as §1, §2, §3, §4
row,Structure (SMILES),EC50 [µM]
1,"CC(C)OC(=O)N1CCC(C)(N2CCC(N3C(=O)CO[C@H]4CCCC[C@@H]43)CC2)CC1 [isopropyl 4-[4-[(4aS, 8aS)-3-oxo-4a,5,6,7,8,8a-hexahydrobenzo[b][1,4]oxazin-4-yl]-1-piperidyl]-4-methyl-piperidine-1-carboxylate]",> 2.89
2,"CC(C)OC(=O)N1CCC(C)(N2CCC(N3C(=O)CN[C@H]4CCCC[C@@H]43)CC2)CC1 [isopropyl 4-[4-[(4aS,8aS)-2-oxo-3,4,4a,5,6,7,8,8a-octahydroquinoxalin-1-yl]-1-piperidyl]-4-methyl-piperidine-1-carboxylate]",> 2.89
3,"Cc1ccccc1C(=O)N1CCC(N2CCC(N3C(=O)OC[C@H]4CCCC[C@@H]43)CC2)CC1 [(4aS,8aS)-1-[1-[1-(2-methylbenzoyl)-4-piperidyl]-4-piperidyl]-4a,5,6,7,8,8a-hexahydro-4H-benzo[d][1,3]oxazin-2-one]",> 2.89

# Further lines, results first:
row,EC50 [µM],Structure (SMILES)
1,> 2.89,"CC(C)(C)OC(=O)N1CCC(N2CCC(N3C(=O)CO[C@H]4CCCC[C@@H]43)CC2)CC1 [tert-butyl 4-[4-[(4aS,8aS)-3-oxo-4a,5,6,7,8,8a-hexahydrobenzo[b][1,4]oxazin-4-yl]-1-piperidyl]piperidine-1-carboxylate]"
2,> 2.89,"COC(=O)N1CCC(N2CCC(N3C(=O)OC[C@H]4CCCC[C@@H]43)CC2)CC1 [methyl 4-[4-[(4aS,8aS)-2-oxo-4a,5,6,7,8,8a-hexahydro-4H-benzo[d][1,3]oxazin-1-yl]-1-piperidyl]piperidine-1-carboxylate]"
3,> 2.89,"CC(C)(C)OC(=O)N1CCC(N2CCC(N3C(=O)OC[C@@H]4CCCC[C@H]43)CC2)CC1 [tert-butyl 4-[4-[(4aR,8aR)-2-oxo-4a,5,6,7,8,8a-hexahydro-4H-benzo[d][1,3]oxazin-1-yl]-1-piperidyl]piperidine-1-carboxylate]"
4,> 2.89,"CC(C)OC(=O)N1CC[C@H](N2CCC(N3C(=O)CO[C@H]4CCCC[C@@H]43)CC2)C1 [isopropyl (3S)-3-[4-[(4aS,8aS)-3-oxo-4a,5,6,7,8,8a-hexahydrobenzo[b][1,4]oxazin-4-yl]-1-piperidyl]pyrrolidine-1-carboxylate]"

# Same assay, conditions: receptor expressed in CHO cells, intracellular Ca2+ release; read-out: hM1 EC50
row,EC50 [µM],Structure (SMILES)
1,0.22,"CC(C)OC(=O)N1CCC(N2CCC(N3C(=O)OC[C@H]4CCCC[C@@H]43)CC2)CC1 [Example 16, Propan-2-yl 4-[4-[(1S,6S)-9-oxo-8-oxa-10-azabicyclo[4.4.0]dec-10-yl]-1-piperidyl]piperidine-1-carboxylate]"
2,0.031,"CCOC(=O)N1CCC(N2CCC(N3C(=O)NC[C@H]4CCCC[C@@H]43)CC2)C1 (stereo partly drawn) [Example 5, ethyl 3-[4-[(4aR,8aS)-2-oxo-3,4,4a,5,6,7,8,8a-octahydroquinazolin-1-yl]-1-piperidyl]pyrrolidine-1-carboxylate]"
3,0.27,"COc1ccsc1C(=O)N1CCC(N2CCC(N3C(=O)OC[C@H]4CCCC[C@@H]43)CC2)CC1 (racemic) [Example 17, (±)(trans)-10-[1-[1-(3-methoxythiophene-2-carbonyl)-4-piperidyl]-4-piperidyl]-8-oxa-10-azabicyclo[4.4.0]decan-9-one]"

# Target: T3, hM5 (human Muscarinic receptor subtype 5) (Homo sapiens, UniProt P08912)
# T3 construct: expressed in transfected cells; host or cells: CHO cells (Chinese hamster ovary cells, ATCC)
# T3 sequence (P08912 1-532): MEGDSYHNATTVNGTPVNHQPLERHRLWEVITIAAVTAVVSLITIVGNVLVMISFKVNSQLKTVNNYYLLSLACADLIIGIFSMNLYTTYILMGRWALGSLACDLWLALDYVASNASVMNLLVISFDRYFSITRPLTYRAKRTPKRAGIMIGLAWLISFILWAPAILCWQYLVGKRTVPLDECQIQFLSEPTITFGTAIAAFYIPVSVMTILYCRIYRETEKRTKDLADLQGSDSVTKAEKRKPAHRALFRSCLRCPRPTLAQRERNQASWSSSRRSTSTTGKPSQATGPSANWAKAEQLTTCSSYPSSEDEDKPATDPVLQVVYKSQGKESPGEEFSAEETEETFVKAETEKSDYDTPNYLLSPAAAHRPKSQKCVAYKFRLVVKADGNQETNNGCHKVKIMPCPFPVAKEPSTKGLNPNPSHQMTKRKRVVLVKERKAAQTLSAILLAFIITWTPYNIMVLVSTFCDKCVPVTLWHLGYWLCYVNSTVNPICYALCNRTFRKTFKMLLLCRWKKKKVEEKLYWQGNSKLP
# Assay: Human M5 calcium mobilization FLIPR assay
# Format: cell-based
# Conditions: receptor expressed in CHO cells, intracellular Ca2+ release
# Experimental: as §1, §2, §3, §4
row,EC50 [µM],Structure (SMILES)
1,> 40,"COc1ccsc1C(=O)N1CCC(N2CCC(N3C(=O)OC[C@H]4CCCC[C@@H]43)CC2)CC1 (racemic) [Example 17, (±)(trans)-10-[1-[1-(3-methoxythiophene-2-carbonyl)-4-piperidyl]-4-piperidyl]-8-oxa-10-azabicyclo[4.4.0]decan-9-one]"
